Measurements published in patent US6984404B1, “Methods for preparing coated drug particles and pharmaceutical formulations thereof” (University of Florida Research Foundation, Inc., priority 1998, dated 2006).
“And” between values parts separate entries of the source, which are not always exact repeats. Equal values may be shown once. Read-outs that look alike come from different tables or passages of the source.

Columns and labels:
[1] = cited from earlier work; for half-life after intravenous administration: intravenous (FP: terminal half-life)
[2] = Plasma concentration after intratracheal administration in rats; assay type: in vivo
Protocol: Characterization of films deposited on silicon wafers or glass slides was performed using SEM. FTIR, and NMR to characterize polymer structure and morphology. The BUD10 and BUD25 coated powders were tested in vitro to assess differences in the dissolution rates. […] Comparison of the plasma concentrations after IT administration of the coated powders with uncoated BUD powders and IV administration of BUD solution, as well as with FP after IT administration, were performed to compare absorption rates. Finally, the pulmonary targeting of coating BUD25 powders after IT administration was compared with the pulmonary targeting of uncoated BUD and FP powders after IT administration and BUD solution after IV administration. Verification of deposited polymer on silicon wafers using NMR and FTIR was used to characterize molecular structure.

plasma protein = settings: cited from earlier work
[3] = cited from earlier work; for pulmonary deposition ratio, MDI: metered dose inhaler (TA: Azmacort MDI with spacer)
[4] = biological target: T1, glucocorticoid receptor (GR) (Homo sapiens, UniProt P04150); settings: cited from earlier work
T1 sequence (P04150 1-777): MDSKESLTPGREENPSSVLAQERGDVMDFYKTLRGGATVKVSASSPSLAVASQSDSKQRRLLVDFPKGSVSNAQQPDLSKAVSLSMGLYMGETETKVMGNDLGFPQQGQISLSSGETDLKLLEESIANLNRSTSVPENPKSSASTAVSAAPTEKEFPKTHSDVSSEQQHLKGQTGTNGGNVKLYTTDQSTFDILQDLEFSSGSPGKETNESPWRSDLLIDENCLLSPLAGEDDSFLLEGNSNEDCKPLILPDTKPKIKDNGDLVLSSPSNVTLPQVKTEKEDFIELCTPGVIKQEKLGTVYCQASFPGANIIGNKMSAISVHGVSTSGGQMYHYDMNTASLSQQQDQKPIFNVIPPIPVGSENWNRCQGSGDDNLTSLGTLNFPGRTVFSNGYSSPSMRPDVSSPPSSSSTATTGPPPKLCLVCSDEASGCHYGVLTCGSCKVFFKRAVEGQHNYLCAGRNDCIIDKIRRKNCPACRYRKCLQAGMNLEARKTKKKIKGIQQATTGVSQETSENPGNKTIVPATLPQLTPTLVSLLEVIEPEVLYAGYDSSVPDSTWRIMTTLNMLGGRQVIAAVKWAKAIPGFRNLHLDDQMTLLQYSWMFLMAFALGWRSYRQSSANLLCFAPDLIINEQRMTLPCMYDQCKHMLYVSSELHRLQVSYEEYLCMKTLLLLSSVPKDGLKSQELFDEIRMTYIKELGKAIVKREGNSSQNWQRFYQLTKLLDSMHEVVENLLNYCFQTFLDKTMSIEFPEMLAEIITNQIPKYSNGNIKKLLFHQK

[5] = rats; cited from earlier work

For `CCCC1O[C@@H]2C[C@H]3[C@@H]4CCC5=CC(=O)C=C[C@]5(C)[C@H]4[C@@H](O)C[C@]3(C)[C@]2(C(=O)CO)O1` (stereo partly shown) [Budesonide, budesonide], the Cmax ([1]; after inhalation via Turbohaler) is listed as 3.5 nM, the plasma half-life ([1]; approximately the same after intravenous and inhalation administration) is listed as 2.8 h and the oral bioavailability ([1]; in vivo) is listed as 11%. For the same molecule, the “volume of distribution at steady state” value ([1]; in vivo) was 183 L, the “first-pass metabolism of an oral dose” value ([1]; oral) was “About 89%” and the “time of peak plasma concentration” value [2] was 0.5 h. For the same molecule, the MAT ([2]; calculated) was 0.3 h and the plasma protein binding (plasma protein) was 88%.

In the case of `CCC(=O)O[C@]1(C(=O)SCF)[C@H](C)C[C@H]2[C@@H]3C[C@H](F)C4=CC(=O)C=C[C@]4(C)[C@@]3(F)[C@@H](O)C[C@@]21C` [FP, fluticasone propionate], the “t1/2 (dose-dependent)” value ([1]; Möllmann et al., 1998) is listed as 5.2 to 7.4 h and 6.0 ± 0.7 h, the “terminal half-life after inhalation” value ([1]; Thorsson et al. 1997) is listed as 10 h and the “mean absorption time (MAT)” value ([1]; after inhalation) is listed as 4.9 h. For the same molecule, the oral bioavailability ([1]; in vivo) was “less than 1%”, the clearance ([1]; in vivo) was 66 L/h and the “drug excreted in the feces” value ([1]; in vivo) was 87–100%. For the same molecule, the “excreted as the inactive 17-carboxylic acid” value ([1]; in vivo) was 340%, the “volume of distribution at steady state” value ([1]; in vivo) was 318 L and the “overall bioavailability after inhalation” value ([1]; inhalation) was 10–15%. For the same molecule, the “mean residence time after inhaled administration (AUMC/AUC)” value ([1]; inhaled) was 9.1 ± 1.1 h and 7.8 to 11 h, the “half-life after intravenous administration” value [1] was 7.7 to 8.3 h and the “pulmonary deposition ratio, DPI” value ([3]; dry powder inhaler) was 15%. For the same molecule, the “pulmonary deposition ratio, MDI” value [3] was 26%, the “receptor binding affinity (RBA)” value [4] was 1800 and the plasma protein binding (plasma protein) was 90%.

For `CC1(C)O[C@@H]2C[C@H]3[C@@H]4CCC5=CC(=O)C=C[C@]5(C)[C@@]4(F)[C@@H](O)C[C@]3(C)[C@]2(C(=O)CO)O1` [TA, triamcinolone acetonide], the mean residence time ([1]; after intravenous administration) is given as 2.7 h, the “absorption of suspension in the lungs” value ([1]; by the difference in half-lives of intravenous versus inhaled doses) is given as ~2 h and the oral bioavailability ([1]; in vivo) is given as 20–25%. For the same molecule, the clearance ([1]; in vivo) was 37.3 L/h, the volume of distribution ([1]; in vivo) was 100 to 150 L and the “half-life after inhaled dose” value ([1]; inhaled) was 3.6 h. The “half-life after intravenous administration” value [1] was 1.4 to 2.0 h, the “pulmonary deposition ratio, MDI” value [3] was “approximately 22%” and the plasma protein binding (plasma protein) was 71%.

In the case of `CC(C)NCC(O)c1ccc(O)c(O)c1` (stereo not shown) [free isopreternol, isoproterenol], the “duration of amelioration of bronchoconstriction” value [5] is given as 30 min.

For Triamcinolone acetonide phosphate [TAP], the plasma half-life ([1]; IV administration in humans) is listed as 0.05 to 0.067 h.
